Assay results published in the NIST ThermoML archive (doi:10.1007/s10765-009-0602-6).

Assay: molar heat capacity at constant volume; xn = mol fraction of the nth substance listed
Details: x1 = 0.2607

N [ammonia] + O
Details	molar heat capacity at constant volume [J/K/mol]
508.07 K, Fluid (supercritical or subcritical phases), Mass density=671.23 kg/m3, isochoric heat capacity	68.25
508.07 K, Liquid, Isochoric heat capacity	68.25
508.26 K, Fluid (supercritical or subcritical phases), Mass density=671.23 kg/m3, isochoric heat capacity	68.14
508.36 K, Fluid (supercritical or subcritical phases), Mass density=671.23 kg/m3, isochoric heat capacity	68.37
508.45 K, Fluid (supercritical or subcritical phases), Mass density=671.23 kg/m3, isochoric heat capacity	67.54
508.54 K, Fluid (supercritical or subcritical phases), Mass density=671.23 kg/m3, isochoric heat capacity	67.61
508.64 K, Fluid (supercritical or subcritical phases), Mass density=671.23 kg/m3, isochoric heat capacity	67.18
509.01 K, Fluid (supercritical or subcritical phases), Mass density=671.23 kg/m3, isochoric heat capacity	68.48
509.11 K, Fluid (supercritical or subcritical phases), Mass density=671.23 kg/m3, isochoric heat capacity	67.7
509.3 K, Fluid (supercritical or subcritical phases), Mass density=671.23 kg/m3, isochoric heat capacity	67.89
509.39 K, Fluid (supercritical or subcritical phases), Mass density=671.23 kg/m3, isochoric heat capacity	66.74
509.67 K, Fluid (supercritical or subcritical phases), Mass density=671.23 kg/m3, isochoric heat capacity	67.09
513.42 K, Fluid (supercritical or subcritical phases), Mass density=671.23 kg/m3, isochoric heat capacity	65.53
513.61 K, Fluid (supercritical or subcritical phases), Mass density=671.23 kg/m3, isochoric heat capacity	65.05
513.8 K, Fluid (supercritical or subcritical phases), Mass density=671.23 kg/m3, isochoric heat capacity	65.6
516.88 K, Fluid (supercritical or subcritical phases), Mass density=671.23 kg/m3, isochoric heat capacity	63.54
517.07 K, Fluid (supercritical or subcritical phases), Mass density=671.23 kg/m3, isochoric heat capacity	63.15
517.26 K, Fluid (supercritical or subcritical phases), Mass density=671.23 kg/m3, isochoric heat capacity	63.06
517.44 K, Fluid (supercritical or subcritical phases), Mass density=671.23 kg/m3, isochoric heat capacity	63.27
517.63 K, Fluid (supercritical or subcritical phases), Mass density=671.23 kg/m3, isochoric heat capacity	62.44
517.82 K, Fluid (supercritical or subcritical phases), Mass density=671.23 kg/m3, isochoric heat capacity	63.49
519.77 K, Fluid (supercritical or subcritical phases), Mass density=649.65 kg/m3, isochoric heat capacity	68.81
519.77 K, Liquid, Isochoric heat capacity	68.81
519.87 K, Fluid (supercritical or subcritical phases), Mass density=649.65 kg/m3, isochoric heat capacity	68.23
520.05 K, Fluid (supercritical or subcritical phases), Mass density=649.65 kg/m3, isochoric heat capacity	65.99
520.14 K, Fluid (supercritical or subcritical phases), Mass density=649.65 kg/m3, isochoric heat capacity	66.91
520.24 K, Fluid (supercritical or subcritical phases), Mass density=649.65 kg/m3, isochoric heat capacity	67.27
520.33 K, Fluid (supercritical or subcritical phases), Mass density=649.65 kg/m3, isochoric heat capacity	64.87
520.42 K, Fluid (supercritical or subcritical phases), Mass density=649.65 kg/m3, isochoric heat capacity	66.63
520.52 K, Fluid (supercritical or subcritical phases), Mass density=649.65 kg/m3, isochoric heat capacity	67.09
520.79 K, Fluid (supercritical or subcritical phases), Mass density=649.65 kg/m3, isochoric heat capacity	65.87
520.98 K, Fluid (supercritical or subcritical phases), Mass density=649.65 kg/m3, isochoric heat capacity	65.39
521.17 K, Fluid (supercritical or subcritical phases), Mass density=649.65 kg/m3, isochoric heat capacity	66.9
521.35 K, Fluid (supercritical or subcritical phases), Mass density=649.65 kg/m3, isochoric heat capacity	66.72
521.45 K, Fluid (supercritical or subcritical phases), Mass density=649.65 kg/m3, isochoric heat capacity	66.06
521.54 K, Fluid (supercritical or subcritical phases), Mass density=649.65 kg/m3, isochoric heat capacity	65.81
526.45 K, Fluid (supercritical or subcritical phases), Mass density=649.65 kg/m3, isochoric heat capacity	63.84
526.64 K, Fluid (supercritical or subcritical phases), Mass density=649.65 kg/m3, isochoric heat capacity	63.74
526.82 K, Fluid (supercritical or subcritical phases), Mass density=649.65 kg/m3, isochoric heat capacity	63.43
527.01 K, Fluid (supercritical or subcritical phases), Mass density=649.65 kg/m3, isochoric heat capacity	63.65
527.19 K, Fluid (supercritical or subcritical phases), Mass density=649.65 kg/m3, isochoric heat capacity	62.83
527.28 K, Fluid (supercritical or subcritical phases), Mass density=649.65 kg/m3, isochoric heat capacity	63.36
545.62 K, Fluid (supercritical or subcritical phases), Mass density=594.32 kg/m3, isochoric heat capacity	71.3
545.62 K, Liquid, Isochoric heat capacity	71.3
545.71 K, Fluid (supercritical or subcritical phases), Mass density=594.32 kg/m3, isochoric heat capacity	69.65
545.8 K, Fluid (supercritical or subcritical phases), Mass density=594.32 kg/m3, isochoric heat capacity	69.15
546.08 K, Fluid (supercritical or subcritical phases), Mass density=594.32 kg/m3, isochoric heat capacity	68.46
546.17 K, Fluid (supercritical or subcritical phases), Mass density=594.32 kg/m3, isochoric heat capacity	67.48
546.35 K, Fluid (supercritical or subcritical phases), Mass density=594.32 kg/m3, isochoric heat capacity	68.48
546.62 K, Fluid (supercritical or subcritical phases), Mass density=594.32 kg/m3, isochoric heat capacity	67.15
546.71 K, Fluid (supercritical or subcritical phases), Mass density=594.32 kg/m3, isochoric heat capacity	66.47
547.07 K, Fluid (supercritical or subcritical phases), Mass density=594.32 kg/m3, isochoric heat capacity	65.62
547.17 K, Fluid (supercritical or subcritical phases), Mass density=594.32 kg/m3, isochoric heat capacity	66.33
547.5 K, Fluid (supercritical or subcritical phases), Mass density=594.32 kg/m3, isochoric heat capacity	65.53
547.79 K, Fluid (supercritical or subcritical phases), Mass density=594.32 kg/m3, isochoric heat capacity	65.46
547.98 K, Fluid (supercritical or subcritical phases), Mass density=594.32 kg/m3, isochoric heat capacity	63.91
549.8 K, Fluid (supercritical or subcritical phases), Mass density=594.32 kg/m3, isochoric heat capacity	63.77
549.98 K, Fluid (supercritical or subcritical phases), Mass density=594.32 kg/m3, isochoric heat capacity	62.97
550.07 K, Fluid (supercritical or subcritical phases), Mass density=594.32 kg/m3, isochoric heat capacity	63.74
550.16 K, Fluid (supercritical or subcritical phases), Mass density=594.32 kg/m3, isochoric heat capacity	63.45
550.34 K, Fluid (supercritical or subcritical phases), Mass density=594.32 kg/m3, isochoric heat capacity	63.56
561.03 K, Fluid (supercritical or subcritical phases), Mass density=552.58 kg/m3, isochoric heat capacity	73.2
561.03 K, Liquid, Isochoric heat capacity	73.2
561.19 K, Fluid (supercritical or subcritical phases), Mass density=552.58 kg/m3, isochoric heat capacity	70.73
561.25 K, Fluid (supercritical or subcritical phases), Mass density=552.58 kg/m3, isochoric heat capacity	66.7
561.34 K, Fluid (supercritical or subcritical phases), Mass density=552.58 kg/m3, isochoric heat capacity	64.8
561.52 K, Fluid (supercritical or subcritical phases), Mass density=552.58 kg/m3, isochoric heat capacity	64.06
561.61 K, Fluid (supercritical or subcritical phases), Mass density=552.58 kg/m3, isochoric heat capacity	62.44
561.7 K, Fluid (supercritical or subcritical phases), Mass density=552.58 kg/m3, isochoric heat capacity	64.39
561.88 K, Fluid (supercritical or subcritical phases), Mass density=552.58 kg/m3, isochoric heat capacity	63.24
561.97 K, Fluid (supercritical or subcritical phases), Mass density=552.58 kg/m3, isochoric heat capacity	62.79
562.06 K, Fluid (supercritical or subcritical phases), Mass density=552.58 kg/m3, isochoric heat capacity	61.43
565.36 K, Liquid, Isochoric heat capacity	73.52
580.18 K, Fluid (supercritical or subcritical phases), Mass density=476.25 kg/m3, isochoric heat capacity	77.25
580.18 K, Liquid, Isochoric heat capacity	77.25
580.21 K, Fluid (supercritical or subcritical phases), Mass density=476.25 kg/m3, isochoric heat capacity	73.61
580.3 K, Fluid (supercritical or subcritical phases), Mass density=476.25 kg/m3, isochoric heat capacity	69.74
580.56 K, Fluid (supercritical or subcritical phases), Mass density=476.25 kg/m3, isochoric heat capacity	68.42
580.74 K, Fluid (supercritical or subcritical phases), Mass density=476.25 kg/m3, isochoric heat capacity	68.46
580.92 K, Fluid (supercritical or subcritical phases), Mass density=476.25 kg/m3, isochoric heat capacity	67.84
581.01 K, Fluid (supercritical or subcritical phases), Mass density=476.25 kg/m3, isochoric heat capacity	68.48
